Source: article PMC10511816 (The Journal of Biological Chemistry, 2023)
Where “and” joins values, the source holds several entries; their conditions need not be identical. Identical values can stand only once.

What was measured:
XO [1] = target: T1, XO (Bos taurus, UniProt P80457); details: 3 μM allopurinol, 2 μM xanthine, 2.56 nM XO, pH 7.4, 37 °C
XOR [2] = details: read-out: Ki for the xanthine to uric acid reaction; steady-state kinetic analysis; cited from earlier work
XO [3] = target: T1, XO; experiment: oxidation of hypoxanthine to xanthine and uric acid by XO, HPLC time course; type: biochemical, bovine; design: Bovine milk was obtained from the animal farm of the Nippon Veterinary and Life Science University; from tissue; host or cells: bovine milk
Description: The rate of NAD^+ conversion to NADH was measured at A340 nm.
Bovine milk was obtained from the animal farm of the Nippon Veterinary and Life Science University. […] The dehydrogenase form of the enzyme (XDH) was obtained by reacting XO immediately upon purification with 5 mM DTT at pH 8.5, 25 °C for 1 h. XO and XDH assays were carried out at 25 °C under aerobic conditions. […] A total of 500 μM β-NAD^+ was added to the same reaction solution for XDH activity. Physiological conditions such as pH 7.4 (0.1 M potassium phosphate buffer (KPB), 0.2 mM EDTA) and the addition of 50 μM β-NADH were also used. The activity was measured by following 295 nm and 340 nm on a UV-1800 or UV1900i spectrophotometer. […] In addition, the enzyme reaction solution was quenched with perchloric acid and neutralized with K2CO3, with products analyzed using HPLC as described below. Spectrophotometric data were analyzed using UV-Probe software Ver. 2.70 or LabSolutions UV-Vis Ver. […] Kinetic parameters were determined from nonlinear curve fits of raw data using GraphPad Prism 9 software.
Purine concentrations were measured using a Shimadzu HPLC system consisting of the CBM-20A controller, LC-20AD pump, SIL-20AC autosampler (set at 4 °C), CTO-20A column oven (set at 40 °C), and SPD-M20A diode array detector. Peak analysis was performed using LC solution software. A SUPELCOSIL LC-18-T column (25 cm × 4.6 mm id 5 μm particle size) was used with the SUPELCOSIL LC-18-T Supelguard guard column separation of purines, using a flow rate was 0.8 ml/min and 10 or 20 μl samples. The mobile phase used was A: 0.1 M KPB and 4 mM tetrabutylammonium hydrogen sulfate (pH 5.5), B: 70% buffer A and 30% methanol (v/v). Gradient conditions were 0 min (0% B), 2 min (0% B), 4 min (30% B), 12 min (60% B), 15 min (100% B), 19 min (100% B), 20 min (0% B), and 30 min (0% B). Detection wavelengths were 254 nm, 268 nm, and 295 nm. The data were analyzed using LabSolutions Ver. 5.97 SP1. All purines were identified by retention time and quantified using an external standard.

[4] = cited from earlier work
[5] = test system: hypoxanthine-guanine phosphoribosyltransferase (HGPRT); details: cited from earlier work
XO type enzyme = target: T2, XO type enzyme (Bos taurus, UniProt P80457); experiment: half-life of the Ered•oxypurinol complex (activity recovery); type: biochemical, bovine
T2 construct: Bovine milk was obtained from the animal farm of the Nippon Veterinary and Life Science University; from tissue; host or cells: bovine milk
T2 sequence (P80457 whole entry): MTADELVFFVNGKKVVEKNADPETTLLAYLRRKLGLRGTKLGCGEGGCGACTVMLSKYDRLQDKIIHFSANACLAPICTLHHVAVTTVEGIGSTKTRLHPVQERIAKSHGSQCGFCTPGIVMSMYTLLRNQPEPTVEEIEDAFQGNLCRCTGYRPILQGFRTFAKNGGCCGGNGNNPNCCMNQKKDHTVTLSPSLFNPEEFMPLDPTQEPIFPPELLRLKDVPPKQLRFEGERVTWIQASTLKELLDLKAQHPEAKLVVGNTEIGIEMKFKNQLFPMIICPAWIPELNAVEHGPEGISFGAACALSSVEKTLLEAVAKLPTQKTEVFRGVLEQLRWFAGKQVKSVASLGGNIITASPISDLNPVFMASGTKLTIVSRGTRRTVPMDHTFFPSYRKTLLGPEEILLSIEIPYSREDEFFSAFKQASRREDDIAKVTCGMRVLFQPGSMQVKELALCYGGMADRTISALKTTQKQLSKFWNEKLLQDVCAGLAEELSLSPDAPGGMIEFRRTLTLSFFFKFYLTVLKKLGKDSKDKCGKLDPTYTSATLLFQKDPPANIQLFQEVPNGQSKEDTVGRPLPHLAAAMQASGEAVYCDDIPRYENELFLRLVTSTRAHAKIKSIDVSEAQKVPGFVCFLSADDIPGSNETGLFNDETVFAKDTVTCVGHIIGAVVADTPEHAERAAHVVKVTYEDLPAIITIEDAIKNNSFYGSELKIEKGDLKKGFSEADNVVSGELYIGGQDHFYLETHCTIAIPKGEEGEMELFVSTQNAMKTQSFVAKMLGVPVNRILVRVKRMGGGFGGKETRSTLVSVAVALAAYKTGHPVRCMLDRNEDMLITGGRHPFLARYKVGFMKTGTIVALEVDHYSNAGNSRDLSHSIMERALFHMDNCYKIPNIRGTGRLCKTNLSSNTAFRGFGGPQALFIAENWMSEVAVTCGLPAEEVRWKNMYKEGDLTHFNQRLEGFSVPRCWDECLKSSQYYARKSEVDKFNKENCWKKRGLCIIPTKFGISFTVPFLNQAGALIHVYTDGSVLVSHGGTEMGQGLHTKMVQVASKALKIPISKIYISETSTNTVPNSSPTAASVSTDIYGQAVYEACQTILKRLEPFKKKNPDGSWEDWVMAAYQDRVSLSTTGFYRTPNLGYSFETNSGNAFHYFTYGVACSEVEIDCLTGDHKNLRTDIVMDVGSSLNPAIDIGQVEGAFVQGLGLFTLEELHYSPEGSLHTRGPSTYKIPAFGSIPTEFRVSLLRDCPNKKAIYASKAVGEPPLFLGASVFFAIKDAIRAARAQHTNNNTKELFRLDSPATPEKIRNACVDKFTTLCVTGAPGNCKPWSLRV
Description: We next examined the half-life of the Ered•oxypurinol complex under more physiological conditions.
The main figure plots activity (%) against time.
Uric acid production was measured at 295 nm with UV-1800 Spectrophotometer at 25 °C. The activity recovery was followed overtime until the activity to flavin ratio reached approximately 200, indicating full reactivation.

[6] = target: T3, Purine nucleoside phosphorylase (PNP) (Homo sapiens, UniProt P00491); experiment: PNP activity assay (inosine degradation, HPLC); type: biochemical; details: human recombinant PNP
T3 construct: purchased Sigma-Aldrich; host or cells: E. coli
T3 sequence (P00491 1-289): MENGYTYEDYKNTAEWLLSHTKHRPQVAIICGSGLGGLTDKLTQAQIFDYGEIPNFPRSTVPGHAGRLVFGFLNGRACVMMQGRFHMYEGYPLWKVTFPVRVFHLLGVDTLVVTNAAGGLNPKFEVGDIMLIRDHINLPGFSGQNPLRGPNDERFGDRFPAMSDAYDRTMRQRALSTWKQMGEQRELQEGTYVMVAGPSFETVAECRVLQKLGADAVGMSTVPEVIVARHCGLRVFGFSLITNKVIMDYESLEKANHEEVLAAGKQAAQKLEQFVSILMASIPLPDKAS
Description: Plasma allopurinol never reaches that concentration, but oxypurinol concentrations could ([34], [35]). Although oxypurinol has been reported to have a stronger inhibitory effect than allopurinol ([32], [36]), the results were obtained prior to several reports on the cooperativity of PNP ([37]). […] This nonideal behavior may be a manifestation of the well-established allosteric properties of PNP ([37]).
Purine nucleoside phosphorylase (human, recombinantly expressed in E. coli) was purchased from Sigma-Aldrich. The reaction solution for inosine hydrolysis consisted of 50 mM KPB (pH 7.4), with varying concentrations of inosine and oxypurinol.
A295 indicates the concentration of uric acid yielded by XOR. […] A295 indicates the concentration of uric acid yielded by XOR. Figure S2. The XOR inhibition mode of oxypurinol.A–G, Lineweaver-Burk plots were generated to visualize data and estimated the inhibition patterns. Data are representative of least two independent experiments. […] The same as in A except that 1.23 nM XDH was used instead of XO and 500 μM NAD^+ was added to the reaction solution. […] The same as in D except that hypoxanthine was used instead of xanthine. […] The same as in D except that febuxostat was used instead of oxypurinol. […] The same as in F except that hypoxanthine was used instead of xanthine. Figure S3. […] Hypoxanthine, xanthine, and uric acid were measured by HPLC.

XOR [7] = details: pH 8.5 and 25 °C; cited from earlier work

T1 sequence (P80457 whole entry): as the sequence (P80457 whole entry) above

Compound | immediate accumulation of oxypurinol (XO [1]) [µM] | time at which xanthine was completely converted to uric acid (XO [1]) [min] | time for which uric acid production was stopped (XO [1]) | Ki (XOR [2]) [nM] | time to inhibit conversion of hypoxanthine to xanthine (XO [3]; 10 μM inhibitor, 2.5 μM hypoxanthine, XO, pH 7.4, 25 °C) | inhibition of conversion of hypoxanthine to xanthine (XO [3]; 50 μM inhibitor, 2.5 μM hypoxanthine, XO) | serum oxypurinol concentrations ([4]; patients receiving 300 mg allopurinol daily for more than 2 weeks) | substrate or inhibitor of HGPRT [5] | half-life of the Ered•oxypurinol complex (XO type enzyme; pH 7.4, 25 °C) | half-life of the Ered•oxypurinol complex (XO type enzyme; pH 7.4, 37 °C) | half-life of the Ered•oxypurinol complex (XO type enzyme; pH 8.5, 37 °C) | inhibition of PNP [6] | mode of inhibition for inosine ([6]; 50 mM KPB pH 7.4, 0-1000 μM oxypurinol) | half-life for reoxidation / dissociation of the Ered•oxypurinol complex (XOR [7]) [h] | accumulation of xanthine from hypoxanthine (XO [3]; up to 500 μM inhibitor, XO and XDH) | oxypurinol concentrations necessary to achieve target serum uric acid levels ([4]; ref Stamp et al. 5, 16) [µmol/L]
Oc1ncnc2[nH]ncc12 [Allopurinol] | 0.5 | 300 | up to 60 min | 100 | about 5 min | inhibition was immediate | greater than 100 μM | is a substrate |  |  |  |  |  |  |  | 
O=c1[nH]c(=O)c2c[nH]nc2[nH]1 [Oxypurinol] |  |  |  |  |  |  |  |  | 9.2 h and 9.198 h | 1.17 h and 1.22 h | 1.17 h and 1.18 h | weakly but allosterically inhibits PNP | competitive | 5 | accumulation of xanthine was still significant even at 500 μM oxypurinol | > 100
